From patent publication USRE42072E1, “Compositions and methods for enhancing receptor-mediated cellular internalization” (The Penn State Research Foundation, priority 1996, dated 2011)

Legend:
luteinizing hormone (LH) [1] = experiment: in vivo; type: in vivo, sheep; conditions: for animals responded: vaginal 200 μg; for LH response: vaginal, progesterone and estradiol treatment
Method: (§1) FIG. 3 is a graph showing the percent of responding animals to LHRH analog vaginal delivery as a function of (simulated) stage of the estrous cycle. Stage of estrous cycle was simulated by delivering estradiol for two weeks to ovariectomized ewes (anestrus phase), followed by two weeks of delivery of estradiol and progesterone (mid-luteal phase), followed by a period of 48 h after progesterone withdrawal (follicular phase). In each simulated phase, 10, 40, or […] of LHRH analog were delivered vaginally in 5 ml of aqueous or methocel solution to groups of six ewes. Responding animals were defined as those treated animals with LH serum values exceeding 3 ng/ml for two or more sampling points, with sampling times of 0, 30, 60, […], 120, 180, 240, 360, and 480 min.
(§2) FIG. 4 is a graph showing serum LH response to vaginal administration of LHRH analog. LHRH analog-was administered vaginally in ovariectomized ewes during the simulated mid-luteal phase in 5 ml of aqueous or methocel (1.75% methyl cellulose) solution (40 μg dose). Standard errors are based on n=6.
(§3) It was therefore hypothesized that the responsiveness of animals to LHRH analog vaginal delivery varied with steroid-dependent hormone receptor expression (estrous cycle). To test this hypothesis, a group of ewes was ovariectomized and administered estradiol and progesterone to mimic the animals' estrous cycle. Ewes were pre-medicated with atropine (0.02 mg/lb) and Telazol (R) (2 mg/lb) intramuscularly. After induction of recumbency, thipental (5% in water) was administered intravenously to induce sufficient anesthesia to permit endotracheal intubation. Anesthesia was maintained using halothane in oxygen at 1-2 liters per minute. Ovaries were removed through a mid-line incision.
(§4) Within 24 h of surgery, a 1.5 cm silicone implant of estradiol (Compudose 200, Elanco, Ind.) was inserted into the left ear to provide a basal level of estradiol. The anestrus state was simulated after two weeks of estradiol delivery following surgery. Experiments were performed in the simulated anestrus state (i.e. two weeks after surgery) as described above. Immediately following the last blood sample, a progesterone-releasing intravaginal device (CIDR-G, Carter Hold Harvey Plastic Products, Hamilton, New Zealand) was inserted.
(§5) In a parallel study, an alternative progesterone-releasing device (Snychro-Mate-B, Sanofi Animal Health, Overland Park, Kans.) was placed in the left ear. The mid-luteal phase was simulated after permitting a 10 day intravaginal or ear progesterone treatment. Experiments were performed in the simulated mid-luteal phase as described above.
(§6) The progesterone-releasing (vaginal or ear) implant was removed and the follicular phase was simulated by allowing a time lapse of 48 h. Experiments were performed in the follicular phase as described above.
(§7) Next, 200 μg of leuprolide acetate in 5 ml of aqueous solutions was vaginally administered during simulated anestrus (estradiol only), mid-luteal (estradiol and progesterone), and follicular (48 h after progesterone withdrawal) phases, as described above. […] In contrast, 100% of animals responded when treated with progesterone and estradiol (FIG. 3).

in vivo = type: in vivo, sheep; conditions: female, sheep, in vivo, 40 ug, bioavailability
Method: as §1, §2, §3, §4, §5, §6, §7

luteinizing hormone (LH) [2] = experiment: Serum LH response to iv injection and vaginal administration of LHRH analog in intact ewes; type: in vivo, sheep
Method: FIGS. 1a and 1b are graphs showing serum responses to iv injection and vacinal administration of vasopressin and leuprolide acetate. […] Vasopressin was injected intravenously ([…]) through a jugular catheter. The peptide was delivered vaginally in 5 ml of aqueous solution (200 g does). Standard errors are based on n=6. […] LHRH analog was injected intravenously ([…]) into through a jugular catheter. The peptide was delivered vaginally in 5 ml of aqueous solution (200 g dose). Standard errors are based on n=6.
FIG. 2 is a graph showing bioavailability of LHRH analog following vaginal administration as a function of methyl cellulose (“methocel”) concentration. Bioavailability is determined relative to intravenous injection (FIG. 1b) and is based on LH response. The administered dose of LHRH analog was 200 g in 5 ml of methocel solution. Results are based on animals that responded to vaginal treatment, with standard error computed on the basis of n≧4 In all cases, less than 50% of treated animals responded with LH levels greater than 3 ng/ml for more than one sampling point, with sampling times of 0, 30, 60, 90, 120, 180, 240, 360, and 480 min.
(§8) First, a peptide that undergoes receptor-mediated transport across the vaginal epithelium was identified by studying the permeation of peptides of varying molecular weight in a sheep model. Peptides were delivered vaginally to sheep in 5 ml of aqueous or methocel solutions with typical peptide concentrations of 10-40 μg/ml. A group of 18 intact ewes were utilized for these experiments. For each study, sheep were randomly assigned to a treatment group. In GnRH studies where each animal received all possible treatment combinations, each animal was assigned to an initial treatment group at random and subsequently randomly to each of the remaining treatment groups. A minimum of 5 days (typically 10 or more days) was allowed between experiments on a given animal, to provide sufficient time for complete recovery of pituitary responsiveness to the highest doses of the GnRH agonist used A 16G 150 mm jugular catheter (Abbocath-T, Abbott Laboratories, Chicago, Ill.) was inserted and blood samples collected at 0, 30, 60, 90, 120, 180, 240, 360, 480 and 1440 min. after treatment. Luteinizing hormone (LH) levels were determined.
(§9) LHRH analog was placed in methyl cellulose solutions (“methocels”) of varying apparent viscosity. […] First, 200 μg of leuprolide acetate in 5 ml of aqueous solutions with melhocel weight concentrations varying between 0% and 3.0% were vaginally administered.

[3] = Bioavailability of peptides after vaginal administration to sheep, relative to intravenous injection; conditions: in vivo
Method: as §8, §9
The enhanced bioavailability of LHRH also coincides with a longer-term release into the systemic circulation at the optimal methocel concentrations. […] To test this hypothesis, the efficacy of a second, physically cross-linked hydrogel that was believed would not enhance endocytosis, but whose apparent viscosity (in the range of hydrogel concentrations 0.0-5.5%) was similar to that of the methocels (in the range 0.0-3.0%) was examined.

With CCNC(=O)[C@@H]1CCCN1C(=O)[C@H](CCCNC(=N)N)NC(=O)[C@H](CC(C)C)NC(=O)[C@@H](CC(C)C)NC(=O)[C@H](Cc1ccc(O)cc1)NC(=O)[C@H](CO)NC(=O)[C@H](Cc1c[nH]c2ccccc12)NC(=O)[C@H](Cc1c[nH]cn1)NC(=O)[C@@H]1CCC(=O)N1 [leuprolide acetate] the bioavailability (luteinizing hormone (LH) [1]; female, sheep, in vivo, 40 ug) was 10%, the animals responded (luteinizing hormone (LH) [1]; treated with progesterone and estradiol (FIG. 3)) was 100% and the animals responded (luteinizing hormone (LH) [1]; with or without 1.75% methocel, estrogen replacement without progesterone) was “less than 50%”. The LH response (luteinizing hormone (LH) [1]; highest dose, with and without methocel) was “saturated”, the LH response (luteinizing hormone (LH) [1]; lowest dose (10 μg)) was “undetectable” and the bioavailability (in vivo) was 6%. The “luteinizing hormone (LH) response” value (luteinizing hormone (LH) [2]; intravenous injection (FIG. 1b)) was “significant”, the “luteinizing hormone (LH) response” value (luteinizing hormone (LH) [2]; vaginal administration, aqueous solution (FIG. 1b)) was “significant” and the “animals showing little or no response” value (luteinizing hormone (LH) [2]; vaginal administration, intact ewes, bimodal distribution) was “approximately 30%”. For the same molecule, the “treated animals that responded with LH levels greater than 3 ng/ml for more than one sampling point” value (luteinizing hormone (LH) [2]; vaginal, 5 ml methocel solution, intact ewes, all methocel concentrations (FIG. 2)) was “less than 50%”, the bioavailability ([3]; female, sheep) was 2.6 ± 0.9% and the “duration of delivery as a function of control gel concentration” value [3] was “diminished with increasing control gel concentration”. The “bioavailability as a function of control hydrogel concentration” value ([3]; sheep) was “diminished with increasing concentration of the hydrogel” and the “bioavailability as a function of methocel concentration” value ([3]; sheep, 200 ug) was “increase as methocel concentration increased to 1.75%, then to fall at higher methocel concentration”.
